“Also recorded” adds a separate entry of the source.

For data set [1], the system named is human umbilical vein endothelial cells (HUVEC) co-cultured with primary human diploid fibroblasts. Description: Angiosys co-culture angiogenesis assay (HUVEC tubule formation). It is filed as cell-based. From the text: The recently developed Angiosys™ co-culture angiogenesis assay (TCS Cell Works, Botolph Claydon, UK) was employed to examine the biological activity of the fibrin E analogue peptides WTM33, WTM34, WTM35, WTM36, and WTM37. This assay involves the co-culturing of human umbilical vein endothelial cells (HUVEC) with primary human diploid fibroblasts. In control cultures treated by the standard method as supplied by the manufacturers, both cell populations increase in number to form a confluent fibroblast monolayer on top off which the HUVEC cells form into corded structures. These structures thicken and anastomose by day 14 to form an intricate network of microvessel-like structures that resemble a capillary bed. It has previously been shown that the control conditions in this assay result in an intermediate degree of formation of these microtubules that can be enhanced by angiogenic effectors such as vascular endothelial growth factor (VEGF), or reduced by anti-angiogenic agents such as suramin (33).
The Angiosys™ assay was used as directed by the manufacturer. Briefly, HUVEC and human diploid fibroblasts were admixed, seeded into 24-well culture plates and incubated for 14 days in endothelial cell culture medium (ECM, TCS Cell Works). This medium, which was replaced with fresh every second day, contains angiogenic factors such as VEGF. Fibrin E analogue peptides were dissolved in this same medium to the indicated concentrations and applied to the cells in the same way as control medium. After the incubation period of 14 days, medium was removed and the cells were fixed in situ at room temperature in 70% ethanol and viewed with an MRC 600 confocal microscope (Bio-Rad). Images were captured using a JVC videocamera mounted on the microscope and coupled to a Neotech Image Grabber/PC.
The table illustrates the […] effects of peptide WTM 35 and 36 (0.19-0.75 μg/ml) on HUVEC tubule formation in the Angiosys™ co-culture angiogenesis assay, compared with an untreated control. The table show the average tubule length obtained using an image analysis package for the PC which transforms the visual data into pixels: […]

The subject of data set [2] is chick chorioallantoic membrane (CAM) vessels. The data set can be described thus: Vessel counting assay using CAM model. Type of data set: in vivo. As to the method:
The CAM were prepared as for the tritiated thymidine assay.
Dulbecco's phosphate buffered saline was used as a control. A range of concentrations of peptides WTM33, WTM34, and WTM35 (1.875, 3.75, 7.5, 15, 30, and 60 μg/ml) were added to the CAM. Inoculations of 0.2 ml of the peptide were carried out on days 10,11 and 12 of CAM development, and then fixed using formalin on day 15.
After fixing in formalin for 2 days the CAM were excised and spoke like sections cut from the centre of the CAM to the outer edge. These were embedded in wax and processed on to slides with H&E staining to visualise the vessels in the section. The numbers of vessels per field of vision, over 10 fields were counted using an Olympus microscope. [Eyepieces set at 58, using ×40 (0.65) lens, from the graticule diameter of field is 0.45 mm, and therefore 1 mm is equal to 2.22 fields of view.] The average number of vessels/field of view×2.22 gives number of vessels/mm of CAM.

The subject of data set [3] is chick chorioallantoic membrane (CAM). The data set can be described thus: CAM cell proliferation assay (DNA synthesis, methyl-[3H]thymidine), substance alone. It is filed as in vivo. The procedure: Cell proliferation was measured using the chick chorioallantoic membrane (CAM) model as described previously (4, 29, 30).
Briefly, on day zero, fertile hens' eggs, are placed in an egg incubator 37.5° C. with pointed ends facing downwards. On day 3, using a 2 ml syringe with a 21G needle, 2 ml of albumen is removed and the eggs returned to the incubator. On day 4, each egg is punctured by a needle at the blunt end into the air space. A square of shell is then removed, causing the egg contents to drop into the space left by collapse of the air space at the end of the egg and the withdrawal of albumen. The volume of the space above the dropped CAM is approximately 7 ml. The square opening in the shell is covered with Sellotape (RTM). The eggs then have to be kept level in the incubator without tilting. On day 10, the surviving eggs are organised into groups of preferably no less than 10. Test and control samples are prepared and each egg receives 0.3 ml of sample injected through the Sellotape (RTM) onto the upper surface of the CAM.
The technique of removal of each CAM is simple but crucial to the rationale of achieving results expressed as total DPM per CAM. […]
The assay used is based on quantitative measurement of DNA synthesis in the CAM after exposure to control and test substances 18 h after application in liquid form to the whole “dropped” area of each CAM (4,29). […]

For LHADPDLGVLCPTGC [WTM34], the “HUVEC tubule formation (in words)” value in data set [1] (0.75, 0.38 and 0.19 μg/ml) is recorded as “inhibit HUVEC tubule formation; also recorded: complete inhibition - no tubule”; in data set [1] (across the range of / all concentrations), “inhibition of HUVEC tubule formation; also recorded: most inhibitory”; in data set [1] (lowest applied doses of 3 μg/ml) it was “markedly reduced the formation of tubules”. Besides, in data set [1] (Angiosys system), the “toxic effect (number of fibroblasts and endothelial cells present)” value is on record as “did not have a toxic effect”. Moreover, the “effect on vessel number” value in data set [2] (30 microgrammes/ml) is “significant reduction in the number of vessels”; in data set [2] (low doses), “stimulatory effect on vessel number”. The “effect on number of vessels per mm of CAM” value is “inhibits cell proliferation and vessel formation in the CAM” in data set [2] (across the range of concentrations tested (1.875-60 μg/ml)); “more dramatic biphasic reaction” in data set [2] (across the range of concentrations tested (1.875-60 μg/ml), listed as WTM 34); “significant reduction in vessel formation” in data set [2] (higher dose range / very high doses). For the same sequence, the “maximum inhibition in the CAM assay” value in data set [3] (peptide alone, highest dose tested (20 micromoles)) turned out to be 60%. For the same sequence, the “effect on cell proliferation relative to control” value in data set [3] (substance alone, across the range of concentrations tested) is “inherent inhibitory effect on cell stimulation; also recorded: inhibits cell proliferation and vessel formation in the CAM; also recorded: inhibitory effects”.
